Results taken from PubChem BioAssay AID1259407 (Chemical Carcinogenesis Research Information System (CCRIS), 2018).
Calls of active or inactive are those of the source. No rule for the calls is given here.

System: CCRIS mutagenicity, Ames/micronucleus/aberration tests
Assay: CCRIS mutagenicity studies
[1] = Test System: AMES SALMONELLA TYPHIMURIUM, Strain/Indicator: TA100, Metabolic Activation: NONE, Method: PREINCUBATION
[2] = Test System: AMES SALMONELLA TYPHIMURIUM, Strain/Indicator: TA98, Metabolic Activation: NONE, Method: PREINCUBATION
[3] = Test System: AMES SALMONELLA TYPHIMURIUM, Strain/Indicator: TA1535, Metabolic Activation: NONE, Method: PREINCUBATION
[4] = Test System: AMES SALMONELLA TYPHIMURIUM, Strain/Indicator: TA1537, Metabolic Activation: NONE, Method: PREINCUBATION

Measured: mutagenic call

O=P(OCC(Br)CBr)(OCC(Br)CBr)OCC(Br)CBr (stereo not given)
active: Test System: AMES SALMONELLA TYPHIMURIUM, Strain/Indicator: TA100, Metabolic Activation: RAT LIVER S-9, PHENOBARBITAL, Method: PREINCUBATION active; positive | Test System: AMES SALMONELLA TYPHIMURIUM, Strain/Indicator: TA100, Metabolic Activation: RAT, LIVER, HEPATOCYTES, PHENOBARBITAL, Method: PREINCUBATION active; positive | Test System: AMES SALMONELLA TYPHIMURIUM, Strain/Indicator: TA100, Metabolic Activation: RAT, LIVER, HEPATOCYTES, Method: PREINCUBATION active; positive | Test System: AMES SALMONELLA TYPHIMURIUM, Strain/Indicator: TA100, Metabolic Activation: RAT, LIVER, MICROSOMES, AROCLOR 1254, Method: STANDARD PLATE active; positive | Test System: AMES SALMONELLA TYPHIMURIUM, Strain/Indicator: TA100, Metabolic Activation: RAT, LIVER, MICROSOMES, PHENOBARBITAL, Method: PREINCUBATION active; positive | Test System: AMES SALMONELLA TYPHIMURIUM, Strain/Indicator: TA100, Metabolic Activation: RAT, LIVER, MICROSOMES, Method: PREINCUBATION active; positive | Test System: AMES SALMONELLA TYPHIMURIUM, Strain/Indicator: TA100, Metabolic Activation: RAT, LIVER, S-9, AROCLOR 1254, Method: STANDARD PLATE active; positive | Test System: AMES SALMONELLA TYPHIMURIUM, Strain/Indicator: TA104, Metabolic Activation: RAT LIVER S-9, PHENOBARBITAL, Method: PREINCUBATION active; positive | Test System: AMES SALMONELLA TYPHIMURIUM, Strain/Indicator: TA1535, Metabolic Activation: RAT, LIVER, S-9, AROCLOR 1254, Method: STANDARD PLATE active; positive | Test System: CHINESE HAMSTER V-79, Strain/Indicator: V-79/6-THIOGUANINE, Metabolic Activation: RAT, LIVER, MICROSOMES, PHENOBARBITAL active; positive | Test System: UDS RAT HEPATOCYTES, Strain/Indicator: THY INCORP, Metabolic Activation: NONE active; positive | Test System: UDS RODENT HEPATOCYTES, Strain/Indicator: THY INCORP (NON-S-PHASE), Metabolic Activation: RAT, LIVER, HEPATOCYTES, PHENOBARBITAL, Method: LIQUID SCINTILLATION COUNTING active; positive | Test System: UDS RODENT HEPATOCYTES, Strain/Indicator: THY INCORP (NON-S-PHASE), Metabolic Activation: RAT, LIVER, HEPATOCYTES, Method: LIQUID SCINTILLATION COUNTING active; positive
inactive: [1] inactive; negative | Test System: AMES SALMONELLA TYPHIMURIUM, Strain/Indicator: TA100, Metabolic Activation: NONE, Method: STANDARD PLATE inactive; negative | Test System: E. COLI, Strain/Indicator: WP2 UVRA, Metabolic Activation: MOUSE, LIVER, S-9, Method: STANDARD PLATE inactive; negative | Test System: E. COLI, Strain/Indicator: WP2 UVRA, Metabolic Activation: NONE, Method: STANDARD PLATE inactive; negative | Test System: E. COLI, Strain/Indicator: WP2 UVRA, Metabolic Activation: RAT, LIVER, S-9, Method: STANDARD PLATE inactive; negative

Cc1nc2c(C)c(C)c3c(nc(N)n3C)c2nc1C
active: Test System: AMES SALMONELLA TYPHIMURIUM, Strain/Indicator: TA98, Metabolic Activation: RAT, LIVER, S-9, AROCLOR 1254, Method: STANDARD PLATE active; positive

Nc1ccc(Oc2ccc(Cl)cc2Cl)cc1
active: Test System: AMES SALMONELLA TYPHIMURIUM, Strain/Indicator: TA98, Metabolic Activation: S-9, Method: STANDARD PLATE active; positive | Test System: AMES SALMONELLA TYPHIMURIUM, Strain/Indicator: TA100, Metabolic Activation: S-9, Method: STANDARD PLATE active; positive | Test System: AMES SALMONELLA TYPHIMURIUM, Strain/Indicator: YG1021, Metabolic Activation: S-9, Method: STANDARD PLATE active; positive | Test System: AMES SALMONELLA TYPHIMURIUM, Strain/Indicator: YG1024, Metabolic Activation: S-9, Method: STANDARD PLATE active; positive | Test System: AMES SALMONELLA TYPHIMURIUM, Strain/Indicator: YG1026, Metabolic Activation: S-9, Method: STANDARD PLATE active; positive | Test System: AMES SALMONELLA TYPHIMURIUM, Strain/Indicator: YG1029, Metabolic Activation: S-9, Method: STANDARD PLATE active; positive

Clc1cc(Cl)c(Cl)c(Cl)c1
inactive: End Point: IN VITRO CHROMOSOMAL ABERRATIONS, Test System: CHO-LB CELLS, Metabolic Activation: NONE inactive; negative | End Point: IN VITRO CHROMOSOMAL ABERRATIONS, Test System: CHO-LB CELLS, Metabolic Activation: RAT, LIVER, S-9, AROCLOR 1254 inactive; negative | Test System: AMES SALMONELLA TYPHIMURIUM, Strain/Indicator: TA98, Metabolic Activation: HAMSTER, LIVER, S-9, AROCLOR 1254, Method: PREINCUBATION inactive; negative | [2] inactive; negative | Test System: AMES SALMONELLA TYPHIMURIUM, Strain/Indicator: TA98, Metabolic Activation: RAT, LIVER, S-9, AROCLOR 1254, Method: PREINCUBATION inactive; negative | Test System: AMES SALMONELLA TYPHIMURIUM, Strain/Indicator: TA100, Metabolic Activation: HAMSTER, LIVER, S-9, AROCLOR 1254, Method: PREINCUBATION inactive; negative | [1] inactive; negative | Test System: AMES SALMONELLA TYPHIMURIUM, Strain/Indicator: TA100, Metabolic Activation: RAT, LIVER, S-9, AROCLOR 1254, Method: PREINCUBATION inactive; negative | Test System: AMES SALMONELLA TYPHIMURIUM, Strain/Indicator: TA1535, Metabolic Activation: HAMSTER, LIVER, S-9, AROCLOR 1254, Method: PREINCUBATION inactive; negative | [3] inactive; negative | Test System: AMES SALMONELLA TYPHIMURIUM, Strain/Indicator: TA1535, Metabolic Activation: RAT, LIVER, S-9, AROCLOR 1254, Method: PREINCUBATION inactive; negative | Test System: AMES SALMONELLA TYPHIMURIUM, Strain/Indicator: TA1537, Metabolic Activation: HAMSTER, LIVER, S-9, AROCLOR 1254, Method: PREINCUBATION inactive; negative | [4] inactive; negative | Test System: AMES SALMONELLA TYPHIMURIUM, Strain/Indicator: TA1537, Metabolic Activation: RAT, LIVER, S-9, AROCLOR 1254, Method: PREINCUBATION inactive; negative

CCCOC(=O)NO
active: Test System: E. COLI, Strain/Indicator: WP2 UVRA, Metabolic Activation: NONE, Method: FLUCTUATION TEST active; positive

O=C1OC(=O)c2cc([N+](=O)[O-])ccc21
inactive: Test System: AMES SALMONELLA TYPHIMURIUM, Strain/Indicator: TA97, Metabolic Activation: HAMSTER, LIVER, S-9, AROCLOR 1254 (10%), Method: PREINCUBATION inactive; negative | Test System: AMES SALMONELLA TYPHIMURIUM, Strain/Indicator: TA100, Metabolic Activation: HAMSTER, LIVER, S-9, AROCLOR 1254 (10%), Method: PREINCUBATION inactive; negative | [1] inactive; negative | Test System: AMES SALMONELLA TYPHIMURIUM, Strain/Indicator: TA100, Metabolic Activation: RAT, LIVER, S-9, AROCLOR 1254 (10%), Method: PREINCUBATION inactive; negative | [3] inactive; negative | Test System: AMES SALMONELLA TYPHIMURIUM, Strain/Indicator: TA1535, Metabolic Activation: RAT, LIVER, S-9, AROCLOR 1254 (10%), Method: PREINCUBATION inactive; negative | Test System: AMES SALMONELLA TYPHIMURIUM, Strain/Indicator: TA1537, Metabolic Activation: HAMSTER, LIVER, S-9, AROCLOR 1254 (10%), Method: PREINCUBATION inactive; negative
active: Test System: AMES SALMONELLA TYPHIMURIUM, Strain/Indicator: TA97, Metabolic Activation: NONE, Method: PREINCUBATION active; positive | Test System: AMES SALMONELLA TYPHIMURIUM, Strain/Indicator: TA97, Metabolic Activation: RAT, LIVER, S-9, AROCLOR 1254 (10%), Method: PREINCUBATION active; positive | Test System: AMES SALMONELLA TYPHIMURIUM, Strain/Indicator: TA98, Metabolic Activation: HAMSTER, LIVER, S-9, AROCLOR 1254 (10%), Method: PREINCUBATION active; positive | [2] active; positive | Test System: AMES SALMONELLA TYPHIMURIUM, Strain/Indicator: TA98, Metabolic Activation: RAT, LIVER, S-9, AROCLOR 1254 (10%), Method: PREINCUBATION active; positive | Test System: AMES SALMONELLA TYPHIMURIUM, Strain/Indicator: TA1535, Metabolic Activation: HAMSTER, LIVER, S-9, AROCLOR 1254 (10%), Method: PREINCUBATION active; positive | [4] active; positive | Test System: AMES SALMONELLA TYPHIMURIUM, Strain/Indicator: TA1537, Metabolic Activation: RAT, LIVER, S-9, AROCLOR 1254 (10%), Method: PREINCUBATION active; positive
